Reference: article PMC3621174, “A cell based high-throughput screening approach for the discovery of new inhibitors of respiratory syncytial virus” (Virology Journal, 2013)
Read-outs that look alike come from different tables or passages of the source.

How the values were obtained:
[1] = test system: RSV strain Long; assay: Plaque reduction assay in HEp-2 cells; type: cell-based, Human respiratory syncytial virus; details: 25 μM test compound, MOI 0.1, HEp-2
Procedure: These compounds were evaluated for their ability to reduce the amount of infectious virus produced in cell culture. HEp-2 cells were infected with hRSV in the presence of 25 μM test compound. Media supernatants were removed and 10-fold serial-diluted onto a confluent field of uninfected, untreated HEp-2 cells, bound, washed, and overlaid with agarose. After six days, plaques were fixed, stained, and counted to determine the amount of infectious virus in the original, drugged supernatants (Figure 8).
Figure 8 Plaque reduction assay in HEp-2 cells. RSV strain Long was assayed for its sensitivity to five compounds. Supernatants were harvested from test (25 μM) or control compound (35 μM) treated RSV-infected HEp-2 cells at a multiplicity of infection (MOI) of 0.1. Serial dilutions of the supernatants were added to monolayers of HEp-2 cells in 24-well plates. Cells were fixed after 6 days and stained with neutral red. Plaque reduction assays were performed in triplicate per compound. CC, uninfected cell control; VC, untreated virus-infected control. The concentration of DMSO in each assay well, including all control wells was 0.5%.
Compounds or carrier control (DMSO) were diluted in Complete DMEM/F12 and 2 mL per well was dispensed to 6-well assay plates (final plate well concentration was 25 μM, ribavirin; 35 μM and final DMSO concentration 0.5%). […]

[2] = Cytotoxicity dose response in HEp-2 cells (Cell Titer Glo); type: cell-based; details: human, HEp-2, 8 point dose response, duplicate
Procedure: (§1) Figure 3 Dose response of ribavirin. HEp-2 cells were plated in 384-well black tissue culture plates at 2,000 cells per well. Ribavirin or carrier control (DMSO) were diluted to 6x in Complete DMEM/F12 and serially diluted 1:2 resulting in an 8 point dose response dilution series. (final plate well concentration ranging from 50 uM to 0.39 uM and a final DMSO concentration of 0.5%). For dose response screening, cells were infected with a 1:500 dilution of virus (viral MOI = 0.5). The assay plates were incubated for six days at 37°C, 5% CO2 and 90% relative humidity and the inhibitory effects of the drug were assessed using Cell Titer Glo. […]
(§2) Following the six day incubation period, the assay plates were equilibrated to room temperature for 30 min. […] At the end of the incubation, luminescence was measured using a multi-label reader (Envision, PerkinElmer, Wellesley, MA) with an integration time of 0.1 s.
(§3) HTS data were analyzed using ActivityBase software (IDBS, Inc., Guildford, UK). Antiviral activity is described as percent CPE inhibition = 100*((luminescence compound well minus median luminescence virus control)/ (median luminescence cell control minus median luminescence virus control)). Percent viability = 100 * luminescence compound well/median luminescence cell control. […] Two dose-response curves were calculated for each substance. […] The selective index (SI) was calculated as SI = CC50/EC50. […]

[3] = test system: hRSV (strain Long); parameters: method as in PMID 14638398; details: previously reported value; cited from earlier work
[4] = test system: hRSV (strain Long); assay: 384-well CPE inhibition assay, hRSV-infected HEp-2 cells, Cell Titer Glo endpoint; type: cell-based; details: human respiratory syncytial virus, 144 h; HEp-2, virus MOI = 0.5, 8 point dose response 50-0.39 uM, 6 days, triplicate; read-out: EC50 (efficacy)
Procedure: as §1, §2, §3

SMILES	reduction in virus titer (pfu/mL) from control [1] [log]	CC50 at 6 days [2] [µM]	EC50 [3] [µM]	EC50 [4] [µM]
O=C(O)C1CC=CCC1C(=O)Nc1ccc(S(=O)(=O)N2CCCc3ccccc32)cc1 (centres unmarked) [SID 93616804]	6.5	–	–	–
COc1ccccc1CNC(=O)C1CCN(S(=O)(=O)c2cccc3nonc23)CC1 [compound 93616803]	4	–	–	–
NC(=O)c1ncn([C@@H]2O[C@H](CO)[C@@H](O)[C@H]2O)n1 [ribavirin]	–	~75	41	~40
